# According to US20200289521A1, “USE OF VITAMIN K IN COMBINATION WITH ANTICOAGULANTS” (KAYDENCE PHARMA AS, priority 2019, published 2020):
# Key:
# VSMCs [1] = assay: ATP increase in VSMCs, 48 hours, with CoCl2 arm (luminescence); assay type: cell-based
# Experimental: (§1) This study was performed to further investigate the origin of ATP production that is influenced by vitamin K2 (MK-7). To perform this study, VSCMs (5000 cells/well) were plated in 96-well plates and left to adhere overnight. Next, cells were incubated for 48 hours with either vehicle, CoCl2 (100 μM), vitamin K2 (MK-7) (10 μM), or UQ10 (10 μM). Hoechst was added to correct for cell number (1 μg/mL). Next, ATP was measured using mammalian lysis buffer for 5 minutes, after which 50 μL ATP substrate solution was added to the wells and incubated for 10 minutes in a dark environment. Finally, medium was transferred to a white plate to measure luminescence.
# VSMCs [2] = assay: Hypoxia (CoCl2) induced oxidative stress in VSMCs (DCFDA); assay type: cell-based
# Experimental: This study was performed to determine whether intracellular oxidative stress in VSCMs is derived from mitochondrial dysfunction. To perform this study, VSMCs were incubated with cobalt chloride, a known stabilizer of HIF1a. Cobalt chloride binding to HIF1a prevents the degradation of HIF1a and thus results in a cellular hypoxia state. HIF1a has been implicated in cancer biology as well as a number of other pathophysiologies, specifically in areas of vascularization and angiogenesis, energy metabolism, cell survival, and tumor invasion. Under normal circumstances, after injury, HIF1a is degraded by the enzyme prolyl hydroxylase (PHD). The continued up-regulation of HIF1a (mimicked by cobalt chloride) promotes tumor growth and metastasis through its role in initiating angiogenesis and regulating cellular metabolism to overcome hypoxia. Hypoxia promotes apoptosis in both normal and tumor cells. Additionally, hypoxia generates significant intracellular oxidative stress.
# To perform the study, VSMCs (10,000 cells/well) were plated in a 96-well plate and left to adhere overnight. Next, the medium was changed to a medium supplemented with 50 μM CoCl2 for 19 hours. The next day, cells were washed and incubated for 1 hour with 20 μM DCFDA in the presence of a vehicle (solvent for CoCl2 and vitamin K2 (MK-7)/UQ10), 10 μM vitamin K2 (MK-7), or 10 μM UQ10 in medium. The medium was then changed to a medium supplemented with vehicle, vitamin K2 (MK-7)/UQ10, or CoCl2, and fluorescent was measured for 6 hours. Fluorescence intensity was normalized for cell count.
# [3] = tested on: whole-blood thrombogenicity; assay: T-TAS Total Thrombus-formation Analysis of whole blood from treated Sprague-Dawley rats; assay type: in vivo; conditions: for AUC: area under flow pressure curve for 30 min, dabigatran 7.5, rivaroxaban 5.0, MK-7 1.5 mg/kg/day; for AUC / OT (time, min) / T10 (time, min): two weeks in diet; for OT (time, min) / T10 (time, min): dabigatran 7.5, rivaroxaban 5.0, vitamin K2 (MK-7) 1.5 mg/kg/day
# Experimental: (§2) This experiment was conducted in order to evaluate the effects of vitamin K2 (MK-7) on the anticoagulant activity of the new oral anticoagulants (NOAC) rivaroxaban and dabigatran using the T-TAS Total Thrombus-formation Analysis System. The T-TAS Total Thrombus-formation Analysis System is a microchip-based flow chamber system capable of evaluating whole-blood thrombogenicity. It is a useful tool in monitoring the efficacy of anticoagulants on thrombus formation and predicting the risk of bleeding complications. To perform the study, 45 wild-type male Sprague-Dawley and 45 transgenic male Ren-2 rats [TGR(mREN-2)27] at the age of 10-11 weeks at the beginning of the treatment period were purchased from animal facility IKEM-CEM Institute of Clinical and Experimental Medicine (Prague, Czech Republic). All animals in the experiment were housed in individually ventilated cages (2-3 rats per cage) and kept in the animal rooms of JCET at a relative humidity of 55±10%, a temperature of 22±2° C., and a light cycle of 7 AM to 7 PM. The rats had free access to food and water. After delivery, animals were randomly divided into 10 experimental groups (5 or 10 rats per group), as indicated below in Table 1. Four days before the start of the treatment, the first part of animals' body weight and food intake was measured in selected representative three cages (rats n=9) to calculate the appropriate amount of tested compounds required for addition to the diet to obtain the dosing indicated in Table 1. It was estimated that food intake was approximately 30 g of chow per rat per day. The animals were fed for two weeks with AIN-93G diet supplemented with rivaroxaban or dabigatran with/without Vitamin K2 (MK-7), as indicated in Table 1. The animals were then anesthetized in order to draw blood samples for further analysis. The body mass of the rats was measured at the beginning and at the end of treatment. At the beginning and at the end of treatment, the food intake per day was measured in representative group of animals to monitor the daily dosing of tested compounds (per kg of body mass). The thrombus formation in vitro was measured in whole blood using a microchip-based flow chamber system according to manufacturers' protocol (Total Thrombus-formation Analyser System, T-TAS; Fujimori Kogyo Co., Ltd., Tokyo, Japan). For the analysis, citrated whole blood (480 μl) was mixed with 20 μl of 300 mM CaCl2 solution containing 1.25 mg/ml CTI (Corn Trypsin Inhibitor). […] The obtained flow pressure pattern for each sample was used to analyze thrombus formation based on the following estimated parameters: […]
# [4] = tested on: whole-blood thrombogenicity; assay: T-TAS Total Thrombus-formation Analysis of whole blood from treated TGR rats; assay type: in vivo, transgenic Ren-2 rats [TGR(mREN-2)27]; conditions: for AUC: area under flow pressure curve for 30 min, dabigatran 7.5, rivaroxaban 5.0, MK-7 1.5 mg/kg/day; for AUC / OT (time, min) / T10 (time, min): two weeks in diet; for OT (time, min) / T10 (time, min): dabigatran 7.5, rivaroxaban 5.0, vitamin K2 (MK-7) 1.5 mg/kg/day
# Experimental: as §2
# VSMCs [5] = assay: ATP increase in VSMCs, 24 hours (luminescence); assay type: cell-based; conditions: 10 μM
# Experimental: This study was performed to determine if vitamin K2 (MK-7) affects ATP generation. ATP is generated via glycolysis in the cytoplasm and via both the Krebs-cycle and oxidative phosphorylation in the mitochondria. ATP generation via glycolysis delivers only 2 ATP, whereas ATP generation in the mitochondria generates some 32 ATP.
# as §1, with “To” for “This study was performed to further investigate the origin of ATP production that is influenced by vitamin K2 (MK-7). To”, “24” for “48”, “vehicle,” for “vehicle, CoCl2 (100 μM),”, “minutes” for “minutes,”, “Finally, the” for “Finally,”, “luminescence” for “luminescence.”
# [6] = tested on: human vascular smooth muscle cells (hVSMCs); assay: ATP measurement in hVSMCs with warfarin and/or vitamin K2 (luminescence); assay type: cell-based; conditions: 24 hours; warfarin 10 or 50 μM, vitamin K2 (MK-7) 10 μM
# Experimental: This study was performed in order to determine the effect of vitamin K2 (MK-7) on warfarin-induced oxidative stress in muscles. To perform this study, human vascular smooth muscle cells (hVSMCs; 5,000 cells/well) were plated in 96-well dark plates and left to adhere overnight. Next, cells were incubated for 24 hours with either vehicle only (as blank control), warfarin (10 or 50 μM), vitamin K2 (MK-7) (10 μM), or a combination of warfarin (50 μM) and vitamin K2 (MK-7) (10 μM). Hoechst was added to correct for cell number (1 μg/mL). Next, ATP was measured using mammalian lysis buffer for 5 minutes after which 50 μL ATP substrate solution was added to the wells and incubated for 10 minutes in a dark environment. Finally, medium was transferred to a white plate to measure luminescence.
# VSMCs [7] = assay: Warfarin-induced oxidative stress in VSMCs, warfarin concentration series (DCFDA); assay type: cell-based; conditions: warfarin 10 to 100 μM, fluorescence over 6 hours
# Experimental: It is known that the level of reactive oxygen species in cells can be measured by measuring the conversion of 2′,7′-dichlorofluorescein diacetate (DCFDA) to the fluorescent dye 2′,7′-dichlorofluorescein (DCF). The fluorescence generated by cells subjected to DCFDA is directly proportional to the amount of oxidized DCFDA to DCF.
# In this study, vitamin K metabolism was blocked using the vitamin K-antagonist warfarin. The study was conducted to investigate whether interference with vitamin K metabolism would cause intracellular oxidative stress. To perform the study, VSMCs (10,000 cells/well) were plated in 96-well plates and left to adhere overnight. Next, cells were incubated for 1 hour with 20 μM DCFDA. The medium was then changed to a medium supplemented with different concentrations of warfarin ranging from 10 to 100 μM, and fluorescence intensity was measured over 6 hours. Fluorescence was normalized for number of cells.
Compound,AUC [3],"OT (time, min) [3] [min]","T10 (time, min) [3] [min]",AUC [4],"OT (time, min) [4] [min]","T10 (time, min) [4] [min]",other results
"[Cl][Co][Cl] [CoCl2, cobalt chloride]",–,–,–,–,–,–,"ATP production compared to vehicle (VSMCs [1]; CoCl2 100 μM, vitamin K2 (MK-7) 10 μM): decreased ATP production; oxidative stress induced by the hypoxia inducer (VSMCs [2]; 50 μM CoCl2): induces increased oxidative stress"
[H]/N=C(/N)c1ccc(NCc2nc3cc(C(=O)N(CCC(=O)O)c4ccccn4)ccc3n2C)cc1 [Dabigatran],2039 ± 32.5,5.753 ± 0.587,3.386 ± 0.237,1898 ± 80.66,8.011 ± 1.317,4.780 ± 0.7073,–
O=C(NC[C@H]1CN(c2ccc(N3CCOCC3=O)cc2)C(=O)O1)c1ccc(Cl)s1 [Rivaroxaban],2011 ± 28.7,6.133 ± 0.518,3.732 ± 0.266,1876 ± 91.28,8.324 ± 1.578,4.996 ± 0.8216,thrombus formation ([3]; anticoagulant alone): inhibited thrombus formation; thrombus formation ([4]; anticoagulant alone): also inhibited thrombus formation
COC1=C(OC)C(=O)C(C/C=C(\C)CC/C=C(\C)CC/C=C(\C)CC/C=C(\C)CC/C=C(\C)CC/C=C(\C)CC/C=C(\C)CC/C=C(\C)CC/C=C(\C)CCC=C(C)C)=C(C)C1=O [UQ10],–,–,–,–,–,–,"ATP production compared to the vehicle (VSMCs [5]): only vitamin K2 (MK-7) increased ATP production; ATP levels compared to CoCl2 (VSMCs [1]; 10 μM vs CoCl2 100 μM): significant higher ATP levels; hypoxia induced oxidative stress (VSMCs [2]; 50 μM CoCl2 for 19 hours, test substance 10 μM, 6 hours): This effect was not found"
CC(=O)CC(c1ccccc1)c1c(O)c2ccccc2oc1=O (stereo not drawn) [warfarin],–,–,–,–,–,–,cell ATP / ATP generation [6]: does not affect ATP generation; intracellular oxidative stress (VSMCs [7]): did cause intracellular oxidative stress
